Columns and labels:
[1] = molecular target: T1, androgen receptor (AR-LBD) (Rattus norvegicus, UniProt P15207); test: Evaluation of androgen receptor affinity (PolarScreen Androgen Receptor Competitor Assay Kit, Red; fluorescence polarization); conditions: 22° C. for 5 hours, relative to binding rate of 1 μM DHT, read-out: AR affinity (pEC50) (converted)
T1 construct: 5 μL of 2×AR-LBD/Fluoromone AL Red Complex contained in the kit; purchased Invitrogen
T1 sequence (P15207 651-882 limits assumed): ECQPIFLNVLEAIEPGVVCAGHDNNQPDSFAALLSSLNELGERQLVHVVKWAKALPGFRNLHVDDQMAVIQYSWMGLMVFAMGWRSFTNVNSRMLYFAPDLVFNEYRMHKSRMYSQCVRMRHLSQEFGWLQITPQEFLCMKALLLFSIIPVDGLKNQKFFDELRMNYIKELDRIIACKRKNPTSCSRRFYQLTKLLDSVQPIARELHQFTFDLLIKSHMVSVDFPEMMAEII
How it was run: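 pEC50 values reflect tracer displacement from AR-LBD (Fluoromone AL Red complex) measured by fluorescence polarization after 5 h at 22° C, normalized to 1 μM DHT and fitted with a 4-parameter model.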

human androgen receptor = molecular target: T2, human androgen receptor (Homo sapiens, UniProt P10275); test: Reporter assay of an androgen receptor responsive sequence (luciferase, transiently transfected HEK293 cells); type: cell-based; conditions: 24 hours incubation, relative to activity of 100 nM DHT, read-out: AR transcriptive activity (pEC50) (converted)
T2 construct: expressed in transfected cells; host or cells: HEK293
T2 sequence (P10275 1-920): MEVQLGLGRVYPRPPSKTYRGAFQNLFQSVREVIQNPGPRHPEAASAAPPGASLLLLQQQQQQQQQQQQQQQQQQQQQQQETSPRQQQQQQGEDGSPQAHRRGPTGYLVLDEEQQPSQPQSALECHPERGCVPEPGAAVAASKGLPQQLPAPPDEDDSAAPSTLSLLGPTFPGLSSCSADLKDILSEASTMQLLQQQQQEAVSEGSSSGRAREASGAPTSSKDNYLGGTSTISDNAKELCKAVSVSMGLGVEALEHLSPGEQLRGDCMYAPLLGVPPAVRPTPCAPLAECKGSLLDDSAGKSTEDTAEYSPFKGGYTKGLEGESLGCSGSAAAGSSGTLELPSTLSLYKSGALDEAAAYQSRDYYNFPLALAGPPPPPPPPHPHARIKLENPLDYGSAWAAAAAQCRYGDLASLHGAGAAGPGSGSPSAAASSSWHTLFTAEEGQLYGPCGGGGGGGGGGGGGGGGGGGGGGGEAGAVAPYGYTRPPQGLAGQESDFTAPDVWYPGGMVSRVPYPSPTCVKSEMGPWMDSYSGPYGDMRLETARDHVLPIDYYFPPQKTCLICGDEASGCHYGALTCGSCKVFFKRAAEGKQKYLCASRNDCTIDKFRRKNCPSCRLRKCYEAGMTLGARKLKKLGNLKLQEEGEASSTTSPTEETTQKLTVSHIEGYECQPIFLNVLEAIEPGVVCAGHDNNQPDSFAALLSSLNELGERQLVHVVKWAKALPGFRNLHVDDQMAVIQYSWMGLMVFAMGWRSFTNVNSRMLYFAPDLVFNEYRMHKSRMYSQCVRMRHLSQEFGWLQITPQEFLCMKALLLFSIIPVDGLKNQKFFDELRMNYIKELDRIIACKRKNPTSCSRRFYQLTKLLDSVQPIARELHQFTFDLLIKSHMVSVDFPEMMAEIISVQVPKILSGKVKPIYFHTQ
How it was run: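 HEK293 cells transiently transfected for 3 h with ARE-firefly luciferase, full-length human AR and TK-Renilla plasmids, then exposed to compound for 24 h at 37 °C in 5% charcoal-treated FBS/DMEM. Dual-Glo luminescence read; pEC50 from 4-parameter fit relative to 100 nM DHT.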

Structure (SMILES)	EC50 [1]	EC50 (human androgen receptor)
CS(=O)(=O)NC(=O)c1nc(N(Cc2cccc(OC(F)F)c2)c2ccc(C#N)cc2)sc1Br [Example 255, 5-bromo-2-[4-cyano-N-[[3-(difluoromethoxy)phenyl]methyl]anilino]-N-methylsulfonyl-thiazole-4-carboxamide]	50.1 nM	79.4 nM
Cc1sc(N(Cc2ccc(C3CC3)nc2)c2ccc(C#N)cc2)nc1C(=O)NS(C)(=O)=O [Compound 593, 2-[4-cyano-N-[(6-cyclopropyl-3-pyridyl)methyl]anilino]-5-methyl-N-methylsulfonyl-thiazole-4-carboxamide]	251 nM	200 nM
Cc1sc(N(Cc2ccc3c(c2)CCO3)c2ccc(C#N)cc2)nc1C(=O)NS(C)(=O)=O [Compound 478, 2-[4-cyano-N-(2,3-dihydrobenzofuran-5-ylmethyl)anilino]-5-methyl-N-methylsulfonyl-thiazole-4-carboxamide]	63.1 nM	25.1 nM
Cc1sc(N(CC23CC4CC(CC(C4)C2)C3)c2ccc(C#N)cc2)nc1C(=O)NS(C)(=O)=O [Compound 76, 2-[N-(1-adamantylmethyl)-4-cyano-anilino]-5-methyl-N-methylsulfonyl-thiazole-4-carboxamide]	50.1 nM	> 10000 nM
COCCCS(=O)(=O)NC(=O)c1nc(N(CCc2ccc(OC(F)(F)F)cc2)Cc2ccc(Cl)cn2)oc1C [Compound 564, 2-[(5-chloro-2-pyridyl)methyl-[2-[4-(trifluoromethoxy)phenyl]ethyl]amino]-N-(3-methoxypropylsulfonyl)-5-methyl-oxazole-4-carboxamide]	158 nM	> 10000 nM
COCCCOc1ccc(CN(c2ccc(C#N)cc2)c2nc(C(=O)NS(C)(=O)=O)c(C)s2)cc1 [Compound 582, 2-[4-cyano-N-[[4-(3-methoxypropoxy)phenyl]methyl]anilino]-5-methyl-N-methylsulfonyl-thiazole-4-carboxamide]	39.8 nM	794 nM
Cc1sc(N(Cc2ccc(OC(F)(F)F)cc2)c2ccc(C#N)cc2)nc1C(=O)NS(=O)(=O)CCCO [Example 200, 2-[4-cyano-N-[[4-(trifluoromethoxy)phenyl]methyl]anilino]-N-(3-hydroxypropylsulfonyl)-5-methyl-thiazole-4-carboxamide]	25.1 nM	316 nM
COc1cccc(CN(c2ccc(C#N)cc2)c2nc(C(=O)NS(C)(=O)=O)c(Br)s2)c1 [Example 265, 5-bromo-2-[4-cyano-N-[(3-methoxyphenyl)methyl]anilino]-N-methylsulfonyl-thiazole-4-carboxamide]	50.1 nM	158 nM
COCCCS(=O)(=O)NC(=O)c1nc(N(Cc2ccc(F)cc2)c2ccc(C#N)cc2)sc1C [Compound 499, 2-[4-cyano-N-[(4-fluorophenyl)methyl]anilino]-N-(3-methoxypropylsulfonyl)-5-methyl-thiazole-4-carboxamide]	39.8 nM	158 nM
COCCCS(=O)(=O)NC(=O)c1nc(N(CCc2ccc(OC(F)(F)F)cc2)Cc2nc(C3CC3)no2)oc1C [Compound 563, 2-[(3-cyclopropyl-1,2,4-oxadiazol-5-yl)methyl-[2-[4-(trifluoromethoxy)phenyl]ethyl]amino]-N-(3-methoxypropylsulfonyl)-5-methyl-oxazole-4-carboxamide]	79.4 nM	1580 nM
Cc1sc(N(CCc2ccc(OC(F)F)cc2)Cc2nc(C3CC3)no2)nc1C(=O)NS(C)(=O)=O [Compound 162, 2-[(3-cyclopropyl-1,2,4-oxadiazol-5-yl)methyl-[2-[4-(difluoromethoxy)phenyl]ethyl]amino]-5-methyl-N-methylsulfonyl-thiazole-4-carboxamide]	158 nM	1000 nM
Cc1sc(N(Cc2ccc(OC(F)F)c(Cl)c2)c2ccc(C#N)cc2)nc1C(=O)NS(C)(=O)=O [Compound 536, 2-[N-[[3-chloro-4-(difluoromethoxy)phenyl]methyl]-4-cyano-anilino]-5-methyl-N-methylsulfonyl-thiazole-4-carboxamide]	20 nM	39.8 nM
CS(=O)(=O)NC(=O)c1nc(N(Cc2ccccc2F)c2ccc(C#N)cc2)sc1Cl [Example 257, 5-chloro-2-[4-cyano-N-[(2-fluorophenyl)methyl]anilino]-N-methylsulfonyl-thiazole-4-carboxamide]	100 nM	79.4 nM
Cc1sc(N(CCc2ccc(C#N)cc2)CC2CCCCC2)nc1C(=O)NS(C)(=O)=O [Compound 716, 2-[2-(4-cyanophenyl)ethyl-(cyclohexylmethyl)amino]-5-methyl-N-methylsulfonyl-thiazole-4-carboxamide]	631 nM	> 10000 nM
CCc1oc(N(Cc2ccc(OC(F)F)cn2)c2ccc(C#N)cc2)nc1C(=O)NS(C)(=O)=O [Compound 635, 2-[4-cyano-N-[[5-(difluoromethoxy)-2-pyridyl]methyl]anilino]-5-ethyl-N-methylsulfonyl-oxazole-4-carboxamide]	398 nM	> 10000 nM
Cc1sc(N(Cc2cccc(C(F)F)c2)c2ccc(C#N)cc2)nc1C(=O)NS(C)(=O)=O [Compound 450, 2-[4-cyano-N-[[3-(difluoromethyl)phenyl]methyl]anilino]-5-methyl-N-methylsulfonyl-thiazole-4-carboxamide]	31.6 nM	50.1 nM
Cc1sc(N(CC(=O)c2ccccc2)Cc2ccccc2)nc1C(=O)NS(C)(=O)=O [Compound 463, 2-[benzyl(phenacyl)amino]-5-methyl-N-methylsulfonyl-thiazole-4-carboxamide]	316 nM	5010 nM
Cc1sc(N(CC2CCC(F)(F)CC2)c2ccc(C#N)cc2)nc1C(=O)NS(C)(=O)=O [Compound 39, 2-[4-cyano-N-[(4,4-difluorocyclohexyl)methyl]anilino]-5-methyl-N-methylsulfonyl-thiazole-4-carboxamide]	251 nM	1260 nM
Cc1sc(N(Cc2cccc(OCc3ccccc3)c2)c2ccc(C#N)cc2)nc1C(=O)NS(C)(=O)=O [Compound 59, 2-[N-[(3-benzyloxyphenyl)methyl]-4-cyano-anilino]-5-methyl-N-methylsulfonyl-thiazole-4-carboxamide]	31.6 nM	> 10000 nM
Cc1sc(N(CCn2cc(C#N)cn2)Cc2ccc(Cl)cc2)nc1C(=O)NS(C)(=O)=O [Compound 736, 2-[(4-chlorophenyl)methyl-[2-(4-cyanopyrazol-1-yl)ethyl]amino]-5-methyl-N-methylsulfonyl-thiazole-4-carboxamide]	200 nM	501 nM
Cc1sc(N(Cc2ccccc2)c2ccc(C#N)cc2)nc1C(=O)NS(=O)(=O)Cc1ccccn1 [Compound 396, 2-(N-benzyl-4-cyano-anilino)-5-methyl-N-(2-pyridylmethylsulfonyl)thiazole-4-carboxamide]	316 nM	6310 nM
Cc1sc(N(Cc2ccccc2)c2ccc3ncsc3c2)nc1C(=O)NS(C)(=O)=O [Compound 335, 2-[1,3-benzothiazol-6-yl(benzyl)amino]-5-methyl-N-methylsulfonyl-thiazole-4-carboxamide]	631 nM	1580 nM
Cc1sc(N(Cc2c(F)cccc2F)c2ccc(C#N)cc2)nc1C(=O)NS(C)(=O)=O [Compound 124, 2-[4-cyano-N-[(2,6-difluorophenyl)methyl]anilino]-5-methyl-N-methylsulfonyl-thiazole-4-carboxamide]	63.1 nM	631 nM
CCS(=O)(=O)NC(=O)c1nc(N(CCc2ccc(C#N)cc2)Cc2ccc(OC(F)(F)F)cc2)sc1C [Compound 726, 2-[2-(4-cyanophenyl)ethyl-[[4-(trifluoromethoxy)phenyl]methyl]amino]-N-ethylsulfonyl-5-methyl-thiazole-4-carboxamide]	31.6 nM	1000 nM
